The values below come from paper PMC9629815, “MK256 is a novel CDK8 inhibitor with potent antitumor activity in AML through downregulation of the STAT pathway” (Oncotarget, 2022).

Read-outs that look alike come from different tables or passages of the source. Bounds are passed on as bounds.

For assay [1], the system named is CD34+/CD38- AML TEX cells. The experiment in a line: Flow cytometry of differentiation/maturation markers. The class given is cell-based, human. As to the method: […] novel human leukemic cell line (TEX) cells were plated on 100 mm culture dishes at 5 × 10^5 per well, starved with medium containing IMDM supplemented with 1.5%FCS, 2 ng/ml SCF, and 0.2 ng/ml IL-3 (Amgen, Thousand Oaks, CA, USA) overnight. […] Media with tested drugs was replaced on the third day. Following the 6-day treatments, cultures were washed once in Sort buffer (PBS + 2% FBS + 2 mM EDTA), and resuspended to a final concentration of 50 million cells/mL into a 96-well V-shaped plate. Cells were subsequently incubated with Zombie Aqua Fixable Viability Dye (Thermo), washed with Sort buffer, and incubated with Human FcX (BioLegend) to prevent non-specific antibody binding. Following FcX incubation, cells were washed with Sort buffer and incubated with cell surface antibody mix diluted in the BV stain buffer (BD Biosciences) following manufacturer instructions for 30 mins on ice in the dark. Cells were then washed with 100 mL Sort buffer and permeabilized in fresh Fix/Perm solution (Foxp3 Transcription Factor Staining Buffer from eBioscience) following the manufacturer’s instructions. Cell were subsequently incubated in intracellular stain mix in Perm Buffer (1 mL 10× Perm Buffer (eBiosceince) + 8.8 mL dH2O + 2% FCS) for 30 mins on ice in dark. Isotype controls were stained with mouse IgG conjugated to FITC, PE, PerCP-Cy5.5, PE-Cy7, APC, and Alexa Fluor™ 700. Antibodies used to stain cells were FITC-conjugated anti-CD93, PE-conjugated anti-CD96, PerCP-Cy5.5-conjugated anti-CD38, PE-Cy7-conjugated anti CD-34, APC-conjugated anti-CD117, and Alexa Fluor™ 700-conjugated LIVE/DEAD (Invitrogen). Stained samples were resuspended in Perm Buffer and run on a FACSAriaII Flow Cytometer (BD Biosciences). Data were analyzed in FACSDiva (BD Biosciences) and FlowJo (Treestar). To determine the absolute numbers of cells in samples analyzed by FACS, AccuCount beads (Spherotech) were added to stained samples prior to each FACS run per manufacturer’s instructions, and absolute cell counts were calculated based on the known number of beads added. In order to cellularly differentiate apoptosis in AML cells, MOLM14, as a result of synergetic treatments of MK256 combined with ABT199, we used Dead Cell Apoptosis Kits with Annexin V (Invitrogen). MOLM14 cells were plated on a 96-well V-shaped plate at 5x10^5 per well, starved with medium containing 99% RPMI 1640, 1% FBS, and 1X Antibiotic-Antimycotic (Invitrogen). MK256 were added to final concentrations of 13.7 nM, 41.2 nM, 123.5 nM, 370.4 nM, […] on each column, while ABT199 was at final concentrations of 0.2 nM, 0.5 nM, 4.1 nM, 12.3 nM, 37.0 nM on each row. Following 72-hr retreatment, cultures were washed once in Sort buffer (PBS + 2% FBS + 2 mM EDTA) and resuspended to a final concentration of 10^4 cells/well into a 96-well V-shaped plate. Cells were subsequently incubated with Alex Fluor™ 488 annexin V and PI for Flow Cytometry following manufacturer’s instructions.
In general terms: Flow cytometry measures light scatter and fluorescence of single cells or particles in a stream.

The test system of assay [2] is MOLM-13. Put plainly: Cell proliferation assay (CellTiter-Glo, 7-day). The following applies: Homo sapiens, MOLM-13, 168 h. The assay is classed as cell-based. The procedure:
[The procedure below names another cell line; the source lists this cell line under the same test.] (§1) AML cell lines MV-4-11, MOLM14, KG-1, and SKNO-1 were acquired from ATCC (Manassas, VA, USA) and DSMZ (Braunschweig, Germany). Cells were plated (96-well) in triplicate at 3000 cells per well for testing (n = 3) in 1% FBS media. On day 7, the CellTiter-Glo Luminescent Cell Viability Assay (Promega, Madison, WI, US) was performed to measure the response. Two independent experiments were done.
In general terms: Cellular ATP, detected with luciferase, serves as a proxy for viable cell number.

Assay [3] relates to KG-1. Put plainly: Cell proliferation assay (CellTiter-Glo, 7-day). The assay is classed as cell-based. The following applies: Homo sapiens, KG-1, 168 h. The procedure: as §1
Assay [4] deals with MV-4-11. The experiment in a line: Cell proliferation assay (CellTiter-Glo, 7-day). The class given is cell-based. The conditions noted are these: Homo sapiens, MV4-11, 168 h. As to the method: as §1
Assay [5] deals with MUTZ-8. Put plainly: Cell proliferation assay (CellTiter-Glo, 7-day). The assay is classed as cell-based. The conditions noted are these: MUTZ-8, 168 h. As to the method: [The procedure below names another cell line; the source lists this cell line under the same test.] as §1
For assay [6], the system named is MOLM-14. The experiment in a line: Cell proliferation assay (CellTiter-Glo, 7-day). The assay is classed as cell-based. The conditions noted are these: Homo sapiens, MOLM-14, 168 h. The procedure:
as §1

For assay [7], the system named is SKNO-1. Put plainly: Cell proliferation assay (CellTiter-Glo, 7-day). The class given is cell-based. The following applies: SKNO-1, 168 h. As to the method: as §1
In assay [8] the test system is MONO-MAC-6. Put plainly: Cell proliferation assay (CellTiter-Glo, 7-day). The conditions noted are these: Homo sapiens, MONO-MAC-6, 168 h. The assay is classed as cell-based. As to the method:
[The procedure below names another cell line; the source lists this cell line under the same test.] as §1

Assay [9] has as its system HEL. The experiment in a line: Cell proliferation assay (CellTiter-Glo, 7-day). The assay is classed as cell-based. The following applies: Homo sapiens, 168 h. As to the method: [The procedure below names another cell line; the source lists this cell line under the same test.] as §1
For assay [10], the system named is NOMO-1. The experiment in a line: Cell proliferation assay (CellTiter-Glo, 7-day). The assay is classed as cell-based. The conditions noted are these: Homo sapiens, NOMO-1, 168 h. As to the method:
[The procedure below names another cell line; the source lists this cell line under the same test.] as §1

The mark [11] stands for this setting: 7-day, bound given in text, read-out: IC50.

Broadly, the IC50 is the concentration that inhibits the measured activity by half.

For `Nc1nccc2c(Br)cc3cc(C(=O)O)ccc3c12` [MK256], the “differentiation of TEX cells” value in assay [1] (50 nM) was “slightly induced the differentiation”; in assay [1] (500 nM) it was “much more effective”. Also, the “decrease of CD93 relative to control” value is 6.5% in [1] (50 nM, day 6) and “approximately 30%” in assay [1] (500 nM, day 6). The “increase of CD117 population relative to control” value in assay [1] (50 nM, day 6) was 16.5%; in assay [1] (500 nM, day 6), 8.6%. The “reduction in CD34 compared to control cells” value in [1] (50 nM, day 6) is 13%; in assay [1] (500 nM, day 6), 28%. For the same molecule, the “expression of CD96 with or without treatment” value in assay [1] (day 6) is reported as “no difference”. Further, in [1] (treated vs control (60% CD38-)), the “reduction of CD38 negativity” value is listed as “approximately 2 fold”. The half-maximal inhibitory concentration (IC50) in assay [2] was 1050 nM; in [3] it was 80 nM; in assay [4], 23 nM; in [5] (setting [11]), more than 2000 nM; in [5] (read-out: IC50 nM (7-day)) it was 5560 nM; in assay [6], 24 nM. The IC50 is 73 nM in assay [7]; 1260 nM in assay [8]; more than 2000 nM in assay [9] (setting [11]); 2700 nM in assay [9] (read-out: IC50 nM (7-day)); 646 nM in assay [10].
